Earlier results in patent publication EP0502666B2, “Ingestible compositions containing water-soluble, high-viscosity grade cellulose ethers” (THE UNIVERSITY OF MICHIGAN, priority 1991, dated 1992).

In the case of `CN(C)C(=N)N=C(N)N` [metformin], the “patients with side effects that lead to the withdrawal of the drug” value (in vivo) is given as about 5% and the “patients with gastrointestinal side effects, initially” value (usually transient) is given as 5-20%.
